Data from the NIST ThermoML archive (doi:10.1016/j.jct.2007.07.001).
Numbers after ± are expanded uncertainties.

Assays:
[1] = molar heat capacity at constant pressure; xn = mol fraction of the nth substance listed; conditions: 101 kPa, Liquid, Large sample (1 g) DSC
[2] = molar heat capacity at constant pressure; conditions: 101 kPa, Liquid, Large sample (1 g) DSC

CCCCCCCC[n+]1ccn(C)c1.F[B-](F)(F)F [1-methyl-3-octylimidazolium tetrafluoroborate] + CO
molar heat capacity at constant pressure [J/K/mol], [1]
Conditions	283.15 K	288.15 K	293.15 K	298.15 K	303.15 K	308.15 K	313.15 K	318.15 K	323.15 K
x1 = 0.0736	111.8 ± 1.7	112.7 ± 1.7	113.6 ± 1.8	114.6 ± 1.8	115.6 ± 1.8	116.6 ± 1.8	117.7 ± 1.8	118.9 ± 1.8	120.1 ± 1.9
x1 = 0.1652	151.5 ± 2.3	152.6 ± 2.4	153.7 ± 2.4	154.7 ± 2.4	155.9 ± 2.4	157 ± 2.4	158.1 ± 2.4	159.3 ± 2.5	160.4 ± 2.5
x1 = 0.3441	226.4 ± 3.5	227.4 ± 3.5	228.5 ± 3.5	229.6 ± 3.6	230.8 ± 3.6	232.1 ± 3.6	233.5 ± 3.6	235 ± 3.6	236.6 ± 3.7
x1 = 0.4516	269.5 ± 4.2	270.8 ± 4.2	272.1 ± 4.2	273.5 ± 4.2	275 ± 4.3	276.6 ± 4.3	278.2 ± 4.3	279.9 ± 4.3	281.6 ± 4.4
x1 = 0.6526	349.3 ± 5.4	351.3 ± 5.4	353.3 ± 5.5	355.3 ± 5.5	357.4 ± 5.5	359.6 ± 5.6	361.8 ± 5.6	364 ± 5.6	366.4 ± 5.7
x1 = 0.8472	427.6 ± 6.6	430.3 ± 6.7	433 ± 6.7	435.7 ± 6.8	438.4 ± 6.8	441.1 ± 6.8	443.7 ± 6.9	446.3 ± 6.9	448.9 ± 7
x1 = 1	490.1 ± 7.6	493.2 ± 7.6	496.3 ± 7.7	499.4 ± 7.7	502.5 ± 7.8	505.4 ± 7.8	508.4 ± 7.9	511.3 ± 7.9	514.2 ± 8

CO [methanol]
[2]
Conditions	molar heat capacity at constant pressure [J/K/mol]
283.15 K	78.6 ± 1.2
288.15 K	79.5 ± 1.2
293.15 K	80.4 ± 1.2
298.15 K	81.3 ± 1.3
303.15 K	82.3 ± 1.3
308.15 K	83.4 ± 1.3
313.15 K	84.5 ± 1.3
318.15 K	85.7 ± 1.3
323.15 K	87 ± 1.3

CCCCCCn1cc[n+](C)c1.F[B-](F)(F)F [1-hexyl-3-methylimidazolium tetrafluoroborate] + CO
molar heat capacity at constant pressure [J/K/mol], [1]
Conditions	283.15 K	288.15 K	293.15 K	298.15 K	303.15 K	308.15 K	313.15 K	318.15 K	323.15 K
x1 = 0.0751	108 ± 1.7	108.7 ± 1.7	109.5 ± 1.7	110.3 ± 1.7	111.2 ± 1.7	112.2 ± 1.7	113.2 ± 1.8	114.2 ± 1.8	115.3 ± 1.8
x1 = 0.1511	135.5 ± 2.1	136.4 ± 2.1	137.4 ± 2.1	138.3 ± 2.1	139.3 ± 2.2	140.3 ± 2.2	141.3 ± 2.2	142.4 ± 2.2	143.4 ± 2.2
x1 = 0.2973	187.2 ± 2.9	188.1 ± 2.9	188.9 ± 2.9	189.9 ± 2.9	190.8 ± 3	191.8 ± 3	192.9 ± 3	193.9 ± 3	195.1 ± 3
x1 = 0.397	220.7 ± 3.4	221.7 ± 3.4	222.8 ± 3.5	223.9 ± 3.5	225.1 ± 3.5	226.3 ± 3.5	227.5 ± 3.5	228.8 ± 3.5	230.1 ± 3.6
x1 = 0.6423	301.9 ± 4.7	303.6 ± 4.7	305.3 ± 4.7	307 ± 4.8	308.7 ± 4.8	310.5 ± 4.8	312.3 ± 4.8	314.1 ± 4.9	315.9 ± 4.9
x1 = 0.8759	380.4 ± 5.9	382.7 ± 5.9	385 ± 6	387.4 ± 6	389.7 ± 6	392.1 ± 6.1	394.5 ± 6.1	396.9 ± 6.1	399.3 ± 6.2
x1 = 1	423.2 ± 6.6	425.8 ± 6.6	428.4 ± 6.6	431 ± 6.7	433.6 ± 6.7	436.2 ± 6.8	438.8 ± 6.8	441.4 ± 6.8	444 ± 6.9

CCCCCCn1cc[n+](C)c1.F[B-](F)(F)F [1-hexyl-3-methylimidazolium tetrafluoroborate]
[2]
Conditions	molar heat capacity at constant pressure [J/K/mol]
283.15 K	423.2 ± 6.6
288.15 K	425.8 ± 6.6
293.15 K	428.4 ± 6.6
298.15 K	431 ± 6.7
303.15 K	433.6 ± 6.7
308.15 K	436.2 ± 6.8
313.15 K	438.8 ± 6.8
318.15 K	441.4 ± 6.8
323.15 K	444 ± 6.9

CO [methanol] + CCCCCCn1cc[n+](C)c1.F[B-](F)(F)F
[1], x2 = 0
Conditions	molar heat capacity at constant pressure [J/K/mol]
283.15 K	78.6 ± 1.2
288.15 K	79.5 ± 1.2
293.15 K	80.4 ± 1.2
298.15 K	81.3 ± 1.3
303.15 K	82.3 ± 1.3
308.15 K	83.4 ± 1.3
313.15 K	84.5 ± 1.3
318.15 K	85.7 ± 1.3
323.15 K	87 ± 1.3

CO [methanol] + CCCCCCCC[n+]1ccn(C)c1.F[B-](F)(F)F
[1], x2 = 0
Conditions	molar heat capacity at constant pressure [J/K/mol]
283.15 K	78.6 ± 1.2
288.15 K	79.5 ± 1.2
293.15 K	80.4 ± 1.2
298.15 K	81.3 ± 1.3
303.15 K	82.3 ± 1.3
308.15 K	83.4 ± 1.3
313.15 K	84.5 ± 1.3
318.15 K	85.7 ± 1.3
323.15 K	87 ± 1.3

CCCCCCCC[n+]1ccn(C)c1.F[B-](F)(F)F [1-methyl-3-octylimidazolium tetrafluoroborate]
[2]
Conditions	molar heat capacity at constant pressure [J/K/mol]
283.15 K	490.1 ± 7.6
288.15 K	493.2 ± 7.6
293.15 K	496.3 ± 7.7
298.15 K	499.4 ± 7.7
303.15 K	502.5 ± 7.8
308.15 K	505.4 ± 7.8
313.15 K	508.4 ± 7.9
318.15 K	511.3 ± 7.9
323.15 K	514.2 ± 8
